Laboratory results as given in PMC11931565, “Exploring medium and long arm extensions of 1,2,4-triazole derivatives as Candida albicans 14α-demethylase (CYP51) inhibitors” (RSC Medicinal Chemistry, 2025).
Values after ≈ are worked out from the molar mass of the structure shown.

Legend:
[1] = system: C. albicans wild-type clinical isolate CA14; assay: C. albicans susceptibility testing (CLSI broth microdilution MIC), strain CA14; assay type: cell-based, Candida albicans; conditions: RPMI 1640, 37 °C, read at 48 h; for MIC: Candida albicans
Description: (§1) Each novel compound was screened against C. albicans wild-type clinical isolate CA14 and C. albicans laboratory strain SC5314 using the standardised CLSI M27-S4 broth dilution method.[28] […] This might be explained by the clog P data as the more lipophilic compounds should more readily penetrate the fungal membrane resulting in improved uptake or may relate to optimal fill of the small hydrophobic pocket leading to improved binding.
(§2) Antifungal MIC values were obtained according to the CLSI microdilution method for yeasts.[28]C. albicans strains CA14 and SC5314 were tested in triplicate. Cultures were diluted to 2.5 × 10^3 cells per mL in RPMI 1640 (Sigma), buffered with 0.165 M MOPS, pH 7.0. Antifungal compounds were dissolved in DMSO and added at a final concentration of 1% v/v DMSO. Plates were incubated at 37 °C and read at 48 h.

native CaCYP51 = molecular target: T1, native CaCYP51 (Candida albicans, UniProt P10613); assay: CaCYP51 type II ligand binding affinity (Kd) from difference spectra saturation curves; conditions: 2.5 μM native CaCYP51; mean ± SD of three titrations; read-out: K d
T1 construct: made in house; host or cells: E. coli
Description: Azole titration was performed in triplicate.
The ligand–CaCYP51 complex was determined by non-linear regression (Levenberg–Marquardt algorithm) using a rearrangement of the Morrison equation for tight ligand binding,[38] while weak ligand binding was calculated by the Michaelis–Menten equation. Curve fitting for novel azole saturation curves was performed using the computer program ProFit 6.1.12 (QuantumSoft, Zurich, Switzerland) for Mac OSX. Kd values were determined for each of the three replicate titrations per azole compound and then mean Kd values and standard deviations calculated.

[2] = molecular target: T2, C. albicans CYP51 (CaCYP51) (Candida albicans, UniProt P10613); assay: CaCYP51 reconstitution assay (IC50); assay type: biochemical; conditions: 1 μM CaCYP51, 60 μM lanosterol, 15 min at 37 °C
T2 construct: made in house; host or cells: E. coli
Description: Derivatives with a MIC <1 μg mL^−1 were chosen for IC50 testing.
C. albicans CYP51 was overexpressed in E. coli and purified and CaCYP51 reconstitutions assays performed.[10,37] The final reaction volume of 500 μL, contained; 1 μM C. albicans CYP51, 2 μM Homo sapiens cytochrome P450 reductase (CPR) (UniProtKB accession number P16435), 60 μM lanosterol, 50 μM dilaurylphosphatidylcholine, 4% w/v 2-hydroypropyl-cyclodextrin, 0.4 mg mL^−1 isocitrate dehydrogenase, 25 mM trisodium isocitrate, 50 mM NaCl, 5 mM MgCl2, and 40 mM MOPS (morpholinepropanesulfonic acid, pH 7.2). Antifungal compounds were added in 2.5 μL DMSO. The reaction was started by the addition of 4 mM NADPH-tetrasodium salt. Samples were shaken for 15 min at 37 °C and sterol metabolites extracted with ethyl acetate and derivatised with BSTFA.

[3] = system: C. albicans laboratory strain SC5314; assay: C. albicans susceptibility testing (CLSI broth microdilution MIC), strain SC5314; assay type: cell-based, Candida albicans; conditions: RPMI 1640, 37 °C, read at 48 h; for MIC: Candida albicans, SC5314, 48 h
Description: as §1, §2

T2 sequence (P10613 whole entry): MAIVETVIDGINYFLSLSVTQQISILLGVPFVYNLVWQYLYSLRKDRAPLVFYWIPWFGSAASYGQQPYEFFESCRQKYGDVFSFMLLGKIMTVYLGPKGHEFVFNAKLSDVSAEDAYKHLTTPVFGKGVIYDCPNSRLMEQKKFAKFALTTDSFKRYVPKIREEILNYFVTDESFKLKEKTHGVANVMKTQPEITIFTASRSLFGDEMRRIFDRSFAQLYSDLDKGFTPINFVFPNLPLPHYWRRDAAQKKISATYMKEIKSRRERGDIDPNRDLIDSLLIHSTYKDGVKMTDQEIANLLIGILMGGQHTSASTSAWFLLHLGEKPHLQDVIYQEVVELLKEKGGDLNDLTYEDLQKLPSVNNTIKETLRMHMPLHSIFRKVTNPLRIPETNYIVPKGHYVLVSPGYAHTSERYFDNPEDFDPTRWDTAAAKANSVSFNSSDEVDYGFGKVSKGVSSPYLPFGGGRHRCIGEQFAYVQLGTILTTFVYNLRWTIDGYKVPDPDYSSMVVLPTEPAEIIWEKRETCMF
T1 sequence (P10613 whole entry): as above

Row | MIC [1] [mg/L] | Kd (native CaCYP51) [µM] | IC50 [2] [µM] | MIC [3] [mg/L] | MIC CA14 [1] [mg/L] | MIC SC5314 [3] [mg/L] | Compound
1 | 0.25 (≈ 0.627 µM) | 1.44 ± 0.266 | 1.3 | 0.25 (≈ 0.627 µM) | – | – | CC(=O)c1cccc(C(=O)NCC(O)(Cn2cncn2)c2ccc(Cl)cc2)c1 (centres unmarked) [6a, 3-Acetyl-N-(2-(4-chlorophenyl)-2-hydroxy-3-(1H-1,2,4-triazol-1-yl)propyl)benzamide]
2 | < 0.03 | 0.229 ± 0.045 | 0.49 | < 0.03 | <0.03 | 0.06 (≈ 0.138 µM) | CC(=O)c1cccc(C(=O)NCC(O)(Cn2cncn2)c2ccc(Cl)cc2Cl)c1 (centres unmarked) [6b, 3-Acetyl-N-(2-(2,4-dichlorophenyl)-2-hydroxy-3-(1H-1,2,4-triazol-1yl)propyl)benzamide]
3 | 0.25 (≈ 0.628 µM) | 0.635 ± 0.181 | 0.77 | 0.25 (≈ 0.628 µM) | – | – | O=C(NCC(O)(Cn1cncn1)c1ccc(Cl)cc1)c1csc(Cl)n1 (centres unmarked) [7a, 2-Chloro-N-(2-(4-chlorophenyl)-2-hydroxy-3-(1H-1,2,4-triazol-1-yl)propyl)thiazole-4-carboxamide]
4 | 4 (≈ 7.39 µM) | – | – | 4 (≈ 7.39 µM) | – | – | O=C(NCC(O)(Cn1cncn1)c1ccc(Cl)cc1)c1ccc(NC(=S)Nc2ccc(Cl)cc2)cc1 (centres unmarked) [11a, N-(2-(4-Chlorophenyl)-2-hydroxy-3-(1H-1,2,4-triazol-1-yl)propyl)-4-(3-(4-chlorophenyl)thioureido)benzamide]
5 | 0.25 (≈ 0.434 µM) | 0.125 ± 0.041 | 0.67 | 0.5 (≈ 0.868 µM) | – | – | O=C(NCC(O)(Cn1cncn1)c1ccc(Cl)cc1Cl)c1ccc(NC(=S)Nc2ccc(Cl)cc2)cc1 (centres unmarked) [11b, 4-(3-(4-Chlorophenyl)thioureido)-N-(2-(2,4-dichlorophenyl)-2-hydroxy-3-(1H-1,2,4-triazol-1-yl)propyl)benzamide]
